Reference: patent US20250326744A1, “PIPERAZINE DERIVATIVE OR SALT THEREOF, AND PHARMACEUTICAL COMPOSITION” (priority 2022, published 2025)
Counter-ions that a name gives are not always drawn.

What was measured:
mexB (PA) strain = experiment: Combinational effect with antibacterial agent against Pseudomonas aeruginosa (Test Examples 2 and 4): mexB (PA) strain with LVFX, TC or AZT at 1/4 MIC, EC99; format: cell-based; conditions: mexB (PA) strain, Test Example 4; for EC99, combinational effect with AZT, mexB (PA): combined with AZT at 1/4 MIC; for EC99, combinational effect with LVFX, mexB (PA): combined with LVFX at 1/4 MIC; for EC99, combinational effect with TC, mexB (PA): combined with TC at 1/4 MIC
How it was run: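 EC99 denotes the minimum test-compound concentration (range 0–800 μM) that suppresses ≥99% of growth, measured by OD595, when combined with ¼ MIC levofloxacin (LVFX), tetracycline or aztreonam. The efflux-pump mutant mexB (PA), expressing mainly MexAB-OprM, was inoculated at 10^4–5 CFU/well in CAMHB for 16–20 h.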

S-3769 strain = experiment: Combinational effect with antibacterial agent against Pseudomonas aeruginosa (Test Examples 2 and 4): S-3769 strain with AMK or GM at 1/4 MIC, EC99; format: cell-based; conditions: S-3769 strain, Test Example 4; for EC99, combinational effect with AMK, S-3769 strain: combined with AMK at 1/4 MIC; for EC99, combinational effect with GM, S-3769 strain: combined with GM at 1/4 MIC
How it was run: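 EC99, the lowest test-compound concentration inhibiting growth by ≥99% (OD595), was measured with aminoglycoside AMK or GM held at ¼ MIC. Strain S-3769, a MexY-overexpressing clinical isolate, was cultured in CAMHB at 10^4 to 5 CFU/well for 16–20 h; compound range 0–800 μM.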

## CCSc1ccc(O)cc1CN1CCN(C(=O)[C@H](N)C2CCN(CCc3cc(Cl)ccc3-c3ccccc3)CC2)CC1 [Example 589, (R)-2-amino-2-(1-(2-(4-chloro-[1,1′-biphenyl]-2-yl)ethyl)piperidin-4-yl)-1-(4-(2-(ethylthio)-5-hydroxybenzyl)piperazin-1-yl)ethan-1-one]
mexB (PA) strain
  EC99, combinational effect with AZT, mexB (PA): S (EC99≤12.5 μM)
  EC99, combinational effect with LVFX, mexB (PA): S (EC99≤12.5 μM)
  EC99, combinational effect with TC, mexB (PA): S (EC99≤12.5 μM)
S-3769 strain
  EC99, combinational effect with AMK, S-3769 strain: S (EC99≤12.5 μM)
  EC99, combinational effect with GM, S-3769 strain: S (EC99≤12.5 μM)

## CSc1cccc(O)c1CN1CCN(C(=O)[C@H](N)C2CCN(CCc3cc(Cl)ccc3-c3ccccc3)CC2)CC1 [Example 590, Hydrochloride of (R)-2-amino-2-(1-(2-(4-chloro-[1,1-biphenyl]-2-yl)ethyl)piperidin-4-yl)-1-(4-(2-hydroxy-6-(methylthio)benzyl)piperazin-1-yl) ethan-1-one]
mexB (PA) strain
  EC99, combinational effect with AZT, mexB (PA): S (EC99≤12.5 μM)
  EC99, combinational effect with LVFX, mexB (PA): S (EC99≤12.5 μM)
  EC99, combinational effect with TC, mexB (PA): S (EC99≤12.5 μM)
S-3769 strain
  EC99, combinational effect with AMK, S-3769 strain: A (12.5 μM<EC99≤25 μM)
  EC99, combinational effect with GM, S-3769 strain: A (12.5 μM<EC99≤25 μM)

## CCSc1cccc(O)c1CN1CCN(C(=O)[C@H](N)C2CCN(CCc3cc(Cl)ccc3-c3ccccc3)CC2)CC1 [Example 591, Hydrochloride of (R)-2-amino-2-(1-(2-(4-chloro-[1,1-biphenyl]-2-yl)ethyl)piperidin-4-yl)-1-(4-(2-(ethylthio)-6-hydroxybenzyl)piperazin-1-yl)ethan-1-one]
mexB (PA) strain
  EC99, combinational effect with AZT, mexB (PA): S (EC99≤12.5 μM)
  EC99, combinational effect with LVFX, mexB (PA): S (EC99≤12.5 μM)
  EC99, combinational effect with TC, mexB (PA): S (EC99≤12.5 μM)
S-3769 strain
  EC99, combinational effect with AMK, S-3769 strain: B (25 μM<EC99≤100 μM)
  EC99, combinational effect with GM, S-3769 strain: B (25 μM<EC99≤100 μM)

## CSc1ccccc1CN1CCN(C(=O)[C@H](N)C2CCN(CCc3cc(Cl)ccc3-c3ccccc3O)CC2)CC1 [Example 592, Hydrochloride of (R)-2-amino-2-(1-(2-(4-chloro-2′-hydroxy-[1,1-biphenyl]-2-yl)ethyl)piperidin-4-yl)-1-(4-(2-(methylthio)benzyl)piperazin-1-yl)ethan-1-one]
mexB (PA) strain
  EC99, combinational effect with AZT, mexB (PA): S (EC99≤12.5 μM)
  EC99, combinational effect with LVFX, mexB (PA): S (EC99≤12.5 μM)
  EC99, combinational effect with TC, mexB (PA): S (EC99≤12.5 μM)
S-3769 strain
  EC99, combinational effect with AMK, S-3769 strain: A (12.5 μM<EC99≤25 μM)
  EC99, combinational effect with GM, S-3769 strain: B (25 μM<EC99≤100 μM)

## CCSc1cc(F)ccc1CN1CCN(C(=O)[C@H](N)C2CCN(CCc3cc(Cl)ccc3-c3cccc(O)c3)CC2)CC1 [Example 593, Hydrochloride of (R)-2-amino-2-(1-(2-(4-chloro-3′-hydroxy-[1,1-biphenyl]-2-yl)ethyl)piperidin-4-yl)-1-(4-(2-(ethylthio)-4-fluorobenzyl)piperazin-1-yl) ethan-1-one]
mexB (PA) strain
  EC99, combinational effect with AZT, mexB (PA): B (25 μM<EC99≤100 μM)
  EC99, combinational effect with LVFX, mexB (PA): A (12.5 μM<EC99≤25 μM)
  EC99, combinational effect with TC, mexB (PA): A (12.5 μM<EC99≤25 μM)
S-3769 strain
  EC99, combinational effect with AMK, S-3769 strain: S (EC99≤12.5 μM)
  EC99, combinational effect with GM, S-3769 strain: B (25 μM<EC99≤100 μM)

## CCSc1cc(F)ccc1CN1CCN(C(=O)[C@H](N)C2CCN(CCc3cc(Cl)ccc3-c3ccccc3O)CC2)CC1 [Example 594, Hydrochloride of (R)-2-amino-2-(1-(2-(4-chloro-2′-hydroxy-[1,1-biphenyl]-2-yl)ethyl)piperidin-4-yl)-1-(4-(2-(ethylthio)-4-fluorobenzyl)piperazin-1-yl) ethan-1-one]
mexB (PA) strain
  EC99, combinational effect with AZT, mexB (PA): S (EC99≤12.5 μM)
  EC99, combinational effect with LVFX, mexB (PA): A (12.5 μM<EC99≤25 μM)
  EC99, combinational effect with TC, mexB (PA): S (EC99≤12.5 μM)
S-3769 strain
  EC99, combinational effect with AMK, S-3769 strain: S (EC99≤12.5 μM)
  EC99, combinational effect with GM, S-3769 strain: A (12.5 μM<EC99≤25 μM)

## CCOc1cccc(F)c1CN1CCN(C(=O)[C@H](N)C2CCN(CCc3cc(Cl)ccc3-c3cccc(O)c3F)CC2)CC1 [Example 595, Hydrochloride of (R)-2-amino-2-(1-(2-(4-chloro-2-fluoro-3′-hydroxy-[1,1-biphenyl]-2-yl)ethyl)piperidin-4-yl)-1-(4-(2-ethoxy-6-fluorobenzyl)piperazin-1-yl)ethan-1-one]
mexB (PA) strain
  EC99, combinational effect with AZT, mexB (PA): S (EC99≤12.5 μM)
  EC99, combinational effect with LVFX, mexB (PA): S (EC99≤12.5 μM)
  EC99, combinational effect with TC, mexB (PA): S (EC99≤12.5 μM)
S-3769 strain
  EC99, combinational effect with AMK, S-3769 strain: S (EC99≤12.5 μM)
  EC99, combinational effect with GM, S-3769 strain: A (12.5 μM<EC99≤25 μM)

## CCOc1cccc(F)c1CN1CCN(C(=O)[C@H](N)C2CCN(CCc3cc(O)ccc3-c3ccccc3)CC2)CC1 [Example 596, Hydrochloride of (R)-2-amino-1-(4-(2-ethoxy-6-fluorobenzyl)piperazin-1-yl)-2-(1-(2-(4-hydroxy-[1,1′-biphenyl]-2-yl)ethyl)piperidin-4-yl)ethan-1-one]
mexB (PA) strain
  EC99, combinational effect with AZT, mexB (PA): C (100 μM<EC99)
  EC99, combinational effect with LVFX, mexB (PA): B (25 μM<EC99≤100 μM)
  EC99, combinational effect with TC, mexB (PA): B (25 μM<EC99≤100 μM)
S-3769 strain
  EC99, combinational effect with AMK, S-3769 strain: S (EC99≤12.5 μM)
  EC99, combinational effect with GM, S-3769 strain: A (12.5 μM<EC99≤25 μM)

## CCSc1cc(F)ccc1CN1CCN(C(=O)[C@H](N)C2CCN(CCc3cc(Cl)ccc3C3=CCNCC3)CC2)CC1 [Example 597, hydrochloride of (R)-2-amino-2-(1-(5-chloro-2-(1,2,3,6-tetrahydropyridin-4-yl)phenethyl)piperidin-4-yl)-1-(4-(2-(ethylthio)-4-fluorobenzyl)piperazin-1-yl)ethan-1-one]
mexB (PA) strain
  EC99, combinational effect with AZT, mexB (PA): B (25 μM<EC99≤100 μM)
  EC99, combinational effect with LVFX, mexB (PA): S (EC99≤12.5 μM)
  EC99, combinational effect with TC, mexB (PA): S (EC99≤12.5 μM)
S-3769 strain
  EC99, combinational effect with AMK, S-3769 strain: S (EC99≤12.5 μM)
  EC99, combinational effect with GM, S-3769 strain: S (EC99≤12.5 μM)

## CCSc1cc(F)ccc1CN1CCN(C(=O)[C@H](N)C2CCN(CCc3cc(Cl)ccc3-c3ccccc3F)CC2)CC1 [Example 598, Hydrochloride of (R)-2-amino-2-(1-(2-(4-chloro-2′-fluoro-[1,1-biphenyl]-2-yl)ethyl)piperidin-4-yl)-1-(4-(2-(ethylthio)-4-fluorobenzyl)piperazin-1-yl) ethan-1-one]
mexB (PA) strain
  EC99, combinational effect with AZT, mexB (PA): S (EC99≤12.5 μM)
  EC99, combinational effect with LVFX, mexB (PA): S (EC99≤12.5 μM)
  EC99, combinational effect with TC, mexB (PA): S (EC99≤12.5 μM)
S-3769 strain
  EC99, combinational effect with AMK, S-3769 strain: A (12.5 μM<EC99≤25 μM)
  EC99, combinational effect with GM, S-3769 strain: S (EC99≤12.5 μM)

## CSc1ccccc1CN1CCN(C(=O)[C@H](N)C2CCN(CCc3cc(Cl)ccc3-c3cccc(N)c3)CC2)CC1 [Example 600, Hydrochloride of (R)-2-amino-2-(1-(2-(3′-amino-4-chloro-[1,1-biphenyl]-2-yl)ethyl)piperidin-4-yl)-1-(4-(2-(methylthio)benzyl)piperazin-1-yl)ethan-1-one]
mexB (PA) strain
  EC99, combinational effect with AZT, mexB (PA): S (EC99≤12.5 μM)
  EC99, combinational effect with LVFX, mexB (PA): S (EC99≤12.5 μM)
  EC99, combinational effect with TC, mexB (PA): S (EC99≤12.5 μM)
S-3769 strain
  EC99, combinational effect with AMK, S-3769 strain: A (12.5 μM<EC99≤25 μM)
  EC99, combinational effect with GM, S-3769 strain: A (12.5 μM<EC99≤25 μM)

## CSc1ccccc1CN1CCN(C(=O)[C@H](N)C2CCN(CCc3cc(Cl)ccc3-c3ccccc3F)CC2)CC1 [Example 601, Hydrochloride of (R)-2-amino-2-(1-(2-(4-chloro-2′-fluoro-[1,1-biphenyl]-2-yl)ethyl)piperidin-4-yl)-1-(4-(2-(methylthio)benzyl)piperazin-1-yl) ethan-1-one]
mexB (PA) strain
  EC99, combinational effect with AZT, mexB (PA): A (12.5 μM<EC99≤25 μM)
  EC99, combinational effect with LVFX, mexB (PA): A (12.5 μM<EC99≤25 μM)
  EC99, combinational effect with TC, mexB (PA): A (12.5 μM<EC99≤25 μM)
S-3769 strain
  EC99, combinational effect with AMK, S-3769 strain: B (25 μM<EC99≤100 μM)
  EC99, combinational effect with GM, S-3769 strain: B (25 μM<EC99≤100 μM)

## CSc1ccccc1CN1CCN(C(=O)[C@H](N)C2CCN(CCc3cc(Cl)ccc3C3=CCNCC3)CC2)CC1 [Example 602, Hydrochloride of (R)-2-amino-2-(1-(5-chloro-2-(1,2,3,6-tetrahydropyridin-4-yl)phenethyl)piperidin-4-yl)-1-(4-(2-(methylthio)benzyl)piperazin-1-yl) ethan-1-one]
mexB (PA) strain
  EC99, combinational effect with AZT, mexB (PA): B (25 μM<EC99≤100 μM)
  EC99, combinational effect with LVFX, mexB (PA): S (EC99≤12.5 μM)
  EC99, combinational effect with TC, mexB (PA): S (EC99≤12.5 μM)
S-3769 strain
  EC99, combinational effect with AMK, S-3769 strain: S (EC99≤12.5 μM)
  EC99, combinational effect with GM, S-3769 strain: S (EC99≤12.5 μM)

## CCSc1cc(F)ccc1CN1CCN(C(=O)[C@H](N)C2CCN(CCc3cc(Cl)ccc3-c3ccccc3N)CC2)CC1 [Example 604, Hydrochloride of (R)-2-amino-2-(1-(2-(2′-amino-4-chloro-[1,1-biphenyl]-2-yl)ethyl)piperidin-4-yl)-1-(4-(2-(ethylthio)-4-fluorobenzyl)piperazin-1-yl) ethan-1-one]
mexB (PA) strain
  EC99, combinational effect with AZT, mexB (PA): S (EC99≤12.5 μM)
  EC99, combinational effect with LVFX, mexB (PA): S (EC99≤12.5 μM)
  EC99, combinational effect with TC, mexB (PA): S (EC99≤12.5 μM)
S-3769 strain
  EC99, combinational effect with AMK, S-3769 strain: A (12.5 μM<EC99≤25 μM)
  EC99, combinational effect with GM, S-3769 strain: A (12.5 μM<EC99≤25 μM)
